According to article PMC9014410, “Discovery of V-0219: A Small-Molecule Positive Allosteric Modulator of the Glucagon-Like Peptide-1 Receptor toward Oral Treatment for “Diabesity”” (Journal of Medicinal Chemistry, 2022):

Target: hGLP-1R (Homo sapiens, UniProt P43220)
Sequence (P43220 24-463): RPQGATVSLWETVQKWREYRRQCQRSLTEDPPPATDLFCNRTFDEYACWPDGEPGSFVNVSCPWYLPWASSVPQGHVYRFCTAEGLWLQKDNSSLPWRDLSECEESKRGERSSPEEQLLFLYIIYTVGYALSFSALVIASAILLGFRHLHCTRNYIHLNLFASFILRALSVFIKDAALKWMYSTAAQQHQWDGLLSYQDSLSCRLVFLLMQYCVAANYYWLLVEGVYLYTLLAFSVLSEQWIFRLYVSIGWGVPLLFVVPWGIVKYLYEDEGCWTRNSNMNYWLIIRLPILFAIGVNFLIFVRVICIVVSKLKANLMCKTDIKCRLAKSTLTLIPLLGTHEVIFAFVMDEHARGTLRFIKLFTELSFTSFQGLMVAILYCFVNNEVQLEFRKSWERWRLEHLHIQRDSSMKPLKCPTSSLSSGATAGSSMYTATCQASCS
Assay: cAMP accumulation in HEK-293 cells expressing hGLP-1R (HEK-GLP-1 cells)
Assay type: cell-based
Conditions: HEK293, read-out: Potentiation of GLP-1 Emax at 10 ?M in a cAMP assay (%); 10 ?M compound (supplementary csv)
Experimental: After this time the culture medium was replaced by 20 μL fresh Opti-MEM containing 500 μM IBMX and 100 μM K579 and incubated with gentle stirring for 10 min at rt. […] Concentration-response curves were fitted to a 4-parameter logistic equation by using GraphPad Prism 2.1 software.
O=S(=O)(NCC1CCN(Cc2nc(-c3ccc(C(F)(F)F)cc3)no2)CC1)c1ccccc1Cl [S28] gave an Emax of less than 30%.
For COc1ccc(-c2noc(CN3CCCC(CN4CCOCC4)C3)n2)cc1 (centres unmarked) [S72], the Emax was less than 30%.
O=C(CC1CCN(Cc2nc(-c3ccc(C(F)(F)F)cc3)no2)CC1)NS(=O)(=O)Cc1ccccc1 [S54] gave an Emax of less than 30%.
In the case of Clc1ccccc1-c1noc(CN2CCCC(CN3CCOCC3)C2)n1 (centres unmarked) [S79], the Emax is reported as less than 30%.
In the case of CNc1cccc(-c2noc(CN3CCCC(CN4CCOCC4)C3)n2)c1 (centres unmarked) [S74], the Emax is reported as less than 30%.
Clc1cccc(-c2noc(CN3CCCC(CN4CCOCC4)C3)n2)c1 (centres unmarked) [S80] showed an Emax of less than 30%.
Work on CCS(=O)(=O)NC(=O)C1CCN(Cc2nc(-c3ccc(C(F)(F)F)cc3)no2)CC1 [S37] yielded an Emax of less than 30%.
Compound CC(=O)c1cccc(S(=O)(=O)NC(=O)CC2CCN(Cc3nc(-c4ccc(C(F)(F)F)cc4)no3)CC2)c1 [S55] has an Emax of less than 30%.
COc1ccc(Br)cc1S(=O)(=O)NC(=O)C1CCN(Cc2nc(-c3ccc(C(F)(F)F)cc3)no2)CC1 [S51] gave an Emax of less than 30%.
Work on O=C(CC1CCN(Cc2nc(-c3ccc(C(F)(F)F)cc3)no2)CC1)NS(=O)(=O)c1ccc(F)cc1 [S57] yielded an Emax of less than 30%.
O=C(NS(=O)(=O)c1ccc(F)cc1)C1CCN(Cc2nc(-c3ccc(C(F)(F)F)cc3)no2)CC1 [S43] showed an Emax of less than 30%.
With FC(F)(F)c1cccc(-c2noc(CN3CCCC(CN4CCOCC4)C3)n2)c1 (centres unmarked) [S66] the Emax was less than 30%.
O=S(=O)(NCC1CCN(Cc2nc(-c3ccc(C(F)(F)F)cc3)no2)CC1)c1cccc(Cl)c1 [S29] gave an Emax of less than 30%.
Compound CCCS(=O)(=O)NC(=O)C1CCN(Cc2nc(-c3ccc(C(F)(F)F)cc3)no2)CC1 [S38] has an Emax of less than 30%.
O=[N+]([O-])c1ccccc1S(=O)(=O)NCC1CCN(Cc2nc(-c3ccc(C(F)(F)F)cc3)no2)CC1 [S24] gave an Emax of less than 30%.
O=C(NS(=O)(=O)c1ccc(C(F)(F)F)cc1)C1CCN(Cc2nc(-c3ccc(C(F)(F)F)cc3)no2)CC1 [S49] gave an Emax of less than 30%.
O=C(NS(=O)(=O)c1cccc(F)c1)C1CCN(Cc2nc(-c3ccc(C(F)(F)F)cc3)no2)CC1 [S42] showed an Emax of less than 30%.
In the case of COC(=O)c1cccc(-c2noc(CN3CCCC(CN4CCOCC4)C3)n2)c1 (centres unmarked) [S82], the Emax is reported as less than 30%.
Cc1ccccc1-c1noc(CN2CCCC(CN3CCOCC3)C2)n1 (centres unmarked) [S67] showed an Emax of less than 30%.
Compound Cc1ccccc1S(=O)(=O)NC(=O)CC1CCN(Cc2nc(-c3ccc(C(F)(F)F)cc3)no2)CC1 [S60] has an Emax of less than 30%.
For COc1ccc(Br)cc1S(=O)(=O)NC1CCN(Cc2nc(-c3ccc(C(F)(F)F)cc3)no2)CC1 [S18], the Emax was less than 30%.
With CS(=O)(=O)NC1CCN(Cc2nc(-c3ccc(C(F)(F)F)cc3)no2)CC1 [S1] the Emax was less than 30%.
Work on CCCS(=O)(=O)NC1CCN(Cc2nc(-c3ccc(C(F)(F)F)cc3)no2)CC1 [S2] yielded an Emax of less than 30%.
Work on O=C(NS(=O)(=O)c1ccc(OC(F)(F)F)cc1)C1CCN(Cc2nc(-c3ccc(C(F)(F)F)cc3)no2)CC1 [S50] yielded an Emax of less than 30%.
With CNC(=O)c1ccc(-c2noc(CN3CCCC(CN4CCOCC4)C3)n2)cc1 (centres unmarked) [S87] the Emax was less than 30%.
Fc1cccc(-c2noc(CN3CCCC(CN4CCOCC4)C3)n2)c1 (centres unmarked) [S77] gave an Emax of less than 30%.

Tested on: INS-1 β-cells
Assay: Insulin secretion by rat INS-1 / INS-1E insulinoma cells
Assay type: cell-based
Conditions: INS-1E cells, 0.5 mM glucose, 0.1 nM test substance; single representative experiment
Experimental: The incubation was done using two types of culture media, defined as low glucose (0.5–3 mM) and high glucose (15 mM). […] Incubation with compounds lasted 30 min, and then the media was collected, centrifuged at 4 °C for 2 min until assayed for insulin using commercial ELISA kit.
For FC(F)(F)c1ccc(-c2noc(CN3CCC[C@H](CN4CCOCC4)C3)n2)cc1 [(R)-9, (−)-4-{[(3R)-1-({3-[4-(Trifluoromethyl)phenyl]-1,2,4-oxadiazol-5-yl}methyl)piperidin-3-yl]methyl}morpholine], the “Insulin secreted” value was 19 ng/mL.
With CC[C@H](C)[C@H](NC(=O)[C@H](Cc1ccccc1)NC(=O)[C@H](CCC(=O)O)NC(=O)[C@H](CCCCN)NC(=O)[C@H](C)NC(=O)[C@H](C)NC(=O)[C@H](CCC(N)=O)NC(=O)CNC(=O)[C@H](CCC(=O)O)NC(=O)[C@H](CC(C)C)NC(=O)[C@H](Cc1ccc(O)cc1)NC(=O)[C@H](CO)NC(=O)[C@H](CO)NC(=O)[C@@H](NC(=O)[C@H](CC(=O)O)NC(=O)[C@H](CO)NC(=O)[C@@H](NC(=O)[C@H](Cc1ccccc1)NC(=O)[C@@H](NC(=O)CNC(=O)[C@H](CCC(=O)O)NC(=O)[C@H](C)NC(=O)[C@@H](N)Cc1c[nH]cn1)[C@@H](C)O)[C@@H](C)O)C(C)C)C(=O)N[C@@H](C)C(=O)N[C@@H](Cc1c[nH]c2ccccc12)C(=O)N[C@@H](CC(C)C)C(=O)N[C@H](C(=O)N[C@@H](CCCCN)C(=O)NCC(=O)N[C@@H](CCCNC(=N)N)C(N)=O)C(C)C [GLP-1, GLP-1(7-36)-NH2, reference compound] the “Insulin secreted” value was 25 ng/mL.

Same assay, conditions: INS-1E cells, 0.5 mM glucose, 1 nM test substance; single representative experiment
With FC(F)(F)c1ccc(-c2noc(CN3CCC[C@H](CN4CCOCC4)C3)n2)cc1 [(R)-9, (−)-4-{[(3R)-1-({3-[4-(Trifluoromethyl)phenyl]-1,2,4-oxadiazol-5-yl}methyl)piperidin-3-yl]methyl}morpholine] the “Insulin secreted” value was 31 ng/mL.
For CC[C@H](C)[C@H](NC(=O)[C@H](Cc1ccccc1)NC(=O)[C@H](CCC(=O)O)NC(=O)[C@H](CCCCN)NC(=O)[C@H](C)NC(=O)[C@H](C)NC(=O)[C@H](CCC(N)=O)NC(=O)CNC(=O)[C@H](CCC(=O)O)NC(=O)[C@H](CC(C)C)NC(=O)[C@H](Cc1ccc(O)cc1)NC(=O)[C@H](CO)NC(=O)[C@H](CO)NC(=O)[C@@H](NC(=O)[C@H](CC(=O)O)NC(=O)[C@H](CO)NC(=O)[C@@H](NC(=O)[C@H](Cc1ccccc1)NC(=O)[C@@H](NC(=O)CNC(=O)[C@H](CCC(=O)O)NC(=O)[C@H](C)NC(=O)[C@@H](N)Cc1c[nH]cn1)[C@@H](C)O)[C@@H](C)O)C(C)C)C(=O)N[C@@H](C)C(=O)N[C@@H](Cc1c[nH]c2ccccc12)C(=O)N[C@@H](CC(C)C)C(=O)N[C@H](C(=O)N[C@@H](CCCCN)C(=O)NCC(=O)N[C@@H](CCCNC(=N)N)C(N)=O)C(C)C [GLP-1, GLP-1(7-36)-NH2, reference compound], the “Insulin secreted” value was 28 ng/mL.

Same assay, conditions: INS-1E cells, 0.5 mM glucose, 10 nM test substance; single representative experiment
With FC(F)(F)c1ccc(-c2noc(CN3CCC[C@H](CN4CCOCC4)C3)n2)cc1 [(R)-9, (−)-4-{[(3R)-1-({3-[4-(Trifluoromethyl)phenyl]-1,2,4-oxadiazol-5-yl}methyl)piperidin-3-yl]methyl}morpholine] the “Insulin secreted” value was 39 ng/mL.
For CC[C@H](C)[C@H](NC(=O)[C@H](Cc1ccccc1)NC(=O)[C@H](CCC(=O)O)NC(=O)[C@H](CCCCN)NC(=O)[C@H](C)NC(=O)[C@H](C)NC(=O)[C@H](CCC(N)=O)NC(=O)CNC(=O)[C@H](CCC(=O)O)NC(=O)[C@H](CC(C)C)NC(=O)[C@H](Cc1ccc(O)cc1)NC(=O)[C@H](CO)NC(=O)[C@H](CO)NC(=O)[C@@H](NC(=O)[C@H](CC(=O)O)NC(=O)[C@H](CO)NC(=O)[C@@H](NC(=O)[C@H](Cc1ccccc1)NC(=O)[C@@H](NC(=O)CNC(=O)[C@H](CCC(=O)O)NC(=O)[C@H](C)NC(=O)[C@@H](N)Cc1c[nH]cn1)[C@@H](C)O)[C@@H](C)O)C(C)C)C(=O)N[C@@H](C)C(=O)N[C@@H](Cc1c[nH]c2ccccc12)C(=O)N[C@@H](CC(C)C)C(=O)N[C@H](C(=O)N[C@@H](CCCCN)C(=O)NCC(=O)N[C@@H](CCCNC(=N)N)C(N)=O)C(C)C [GLP-1, GLP-1(7-36)-NH2, reference compound], the “Insulin secreted” value was 34 ng/mL.

Same assay, conditions: INS-1E cells, 0.5 mM glucose, 100 nM test substance; single representative experiment
With CC[C@H](C)[C@H](NC(=O)[C@H](Cc1ccccc1)NC(=O)[C@H](CCC(=O)O)NC(=O)[C@H](CCCCN)NC(=O)[C@H](C)NC(=O)[C@H](C)NC(=O)[C@H](CCC(N)=O)NC(=O)CNC(=O)[C@H](CCC(=O)O)NC(=O)[C@H](CC(C)C)NC(=O)[C@H](Cc1ccc(O)cc1)NC(=O)[C@H](CO)NC(=O)[C@H](CO)NC(=O)[C@@H](NC(=O)[C@H](CC(=O)O)NC(=O)[C@H](CO)NC(=O)[C@@H](NC(=O)[C@H](Cc1ccccc1)NC(=O)[C@@H](NC(=O)CNC(=O)[C@H](CCC(=O)O)NC(=O)[C@H](C)NC(=O)[C@@H](N)Cc1c[nH]cn1)[C@@H](C)O)[C@@H](C)O)C(C)C)C(=O)N[C@@H](C)C(=O)N[C@@H](Cc1c[nH]c2ccccc12)C(=O)N[C@@H](CC(C)C)C(=O)N[C@H](C(=O)N[C@@H](CCCCN)C(=O)NCC(=O)N[C@@H](CCCNC(=N)N)C(N)=O)C(C)C [GLP-1, GLP-1(7-36)-NH2, reference compound] the “Insulin secreted” value was 32 ng/mL.

Tested on: EndoC-βH1 cells
Assay: Insulin secretion by human pancreatic EndoC-βH1 cells
Assay type: cell-based
Conditions: high glucose concentration
Experimental: Both cell lines were cultured in RPMI 1640 medium supplemented with 10% fetal calf serum as described. Cell monolayers were incubated at 37 °C in a 7.5% CO2 atmosphere. For insulin secretion studies, cells were detached, washed once with glucose-free medium and placed in 48 multiwell plates (100,000 cells per well) and kept in glucose-free medium for 1.5 h prior to incubation with drugs. The incubation was done using two types of culture media, defined as low glucose (0.5–3 mM) and high glucose (15 mM). […] Incubation with compounds lasted 30 min, and then the media was collected, centrifuged at 4 °C for 2 min until assayed for insulin using commercial ELISA kit.
For FC(F)(F)c1ccc(-c2noc(CN3CCC[C@H](CN4CCOCC4)C3)n2)cc1 [(R)-9, (−)-4-{[(3R)-1-({3-[4-(Trifluoromethyl)phenyl]-1,2,4-oxadiazol-5-yl}methyl)piperidin-3-yl]methyl}morpholine], the “potentiation of insulin secretion stimulated by GLP-1 (in words)” value was “similarly potentiate insulin secretion stimulated by GLP-1”.

Tested on: not given
Assay: not given
Conditions: not given
Work on Cl.NC(=O)C1CCN(Cc2nc(-c3ccc(C(F)(F)F)cc3)no2)CC1 [compound 7, 1-({3-[4-(Trifluoromethyl)phenyl]-1,2,4-oxadiazol-5-yl}methyl)piperidine-4-carboxamide] yielded a melting point of 187 to 188 °C.
